We go through ten compounds from patent publication US9180159B2, “Use of cell-permeable peptide inhibitors of the JNK signal transduction pathway for the treatment of chronic or non-chronic inflammatory digestive diseases” (Xigen Inflammation Ltd., priority 2008, dated 2015).

Non-standard residues stand in square brackets, D forms with d.

The test system of series [1] is transient global ischemia. The conditions noted are these: Carboni et al. 2004; cited from earlier work.
The test system of series [2] is primary embryonic cultures and differentiated PC12 cells. The note with it: at dosages that inhibit activation of JNKs; after trophic withdrawal; cited from earlier work.
Series [3] has as its system cultured chick embryonic dorsal root ganglion, sympathetic, ciliary and motor neurons. The conditions noted are these: Borasio et al. 1998; cited from earlier work.
The conditions of series [4]: mice treated with 1-methyl-4-phenyl tetrahydropyridine; cited from earlier work.
Series [5] relates to TNBS-induced colitis. The series can be described thus: TNBS-induced colitis (IBD study) in BALB/c mice, Example 12. It counts as in vivo. The note with it: for clinical score: XG-102 any dose, route or schedule, Sulfasalazine 10 mg/kg PO daily. On the procedure:
b) Constitution of test groups and dose levels • The table below lists the experimental groups comprising the study.
c) Test Procedures • Colitis was induced by administration of TNBS […], as a single or repeated daily doses (see above).
d) Observations and Examinations • i) Clinical signs • Throughout the duration of the above experiment, careful clinical examinations were carried out and recorded. Observations included changes external appearance, e.g. of the skin, fur, eyes, mucous membranes, occurrence of secretions and excretions (e.g. diarrhea), and autonomic activity. Changes in gait, posture and response to handling, as well as the presence of bizarre behavior, tremors, convulsions, sleep and coma were also noted. • ii) Body weights • Determination of individual body weight of animals was made on a daily basis. • iii) Clinical assessment of colitis • Body weight, stool consistency and bleeding per rectum were all recorded daily and served as the parameters of disease severity score:
• iv) Gross pathology of the colon • On the last day of the experiment, animals were euthanized and the colon was removed for gross pathology evaluation according to the following score: […]

Series [6] concerns TC-3 cell cultures. The series can be described thus: Cellular import and intracellular persistence of fluorescein-labeled peptides in TC-3 cells. The series is classed as cell-based. The conditions noted are these: 1 μM. On the procedure: The ability of the L- and D-enantiomeric forms of TAT and TAT-IB1(s) peptides (“TAT-IB peptides”) to enter cells was evaluated. L-TAT, D-TAT, L-TAT-IB1(s), and D-TAT-IB1(s) peptides [SEQ ID NOs: 5, 6, 9 and 12, respectively] were labeled by N-terminal addition of a glycine residue conjugated to fluorescein. Labeled peptides (1 μM) were added to TC-3 cell cultures, which were maintained as described in Example 3. At predetermined times cells were washed with PBS and fixed for five minutes in ice-cold methanol-acetone (1:1) before being examined under a fluorescence microscope. Fluorescein-labeled BSA (1 μM, 12 moles/mole BSA) was used as a control.
Little to no signal was present at 48 hours.

Series [7] has as its system Jurkat cells. The series can be described thus: PMA & ionomycin-induced cytokine production in Jurkat cells. The series is classed as cell-based. The text has this: (§1) XG-102 (SEQ ID NO:11) inhibits cytokine release in both myeloid and lymphoid cell lines, reducing LPS-induced TNFa, IL-6 and MCP-1 release in THP-1 cells (Panels A-C) and PMA & ionomycin-induced IFNg, IL-6 and IL-2 production in Jurkat cells (Panels D-F).

Series [8] concerns THP-1 cells. The series can be described thus: LPS-induced cytokine and chemokine release in THP-1 cells. The series is classed as cell-based.
From the text: as §1

The test system of series [9] is murine macrophages. The series can be described thus: LPS-induced cytokine release in murine macrophages. The series is classed as cell-based.
The subject of series [10] is murine T cells. The series can be described thus: PMA & ionomycin-induced cytokine production in murine T cells. It counts as cell-based.
For series [11], the system named is TC-3 cells. The series can be described thus: IL-1 induced pancreatic beta-cell death in TC-3 cells treated with peptides. The note with it: one single addition 1 μM. The series is classed as cell-based. On the procedure:
Inhibition of IL-1 induced pancreatic beta-cell death by the D-TAT-IB1(s) peptide was analyzed. TC-3 cells were incubated as described above for 30 minutes with one single addition of the indicated peptides (1, μM), then IL-1 (10 ng/ml) was added.
Apoptotic cells were then counted after two days of incubation with IL-1 by use of Propidium Iodide and Hoechst 33342 nuclear staining. A minimum of 1,000 cells were counted for each experiment.
Long term inhibition of IL-1P induced cell-death by the D-TAT-IB1 peptide was also analyzed. TC-3 cells were incubated as above for 30 minutes with one single addition of the indicated peptides (1 μM), then IL-1 (10 ng/ml) was added, followed by addition of the cytokine every two days. Apoptotic cells were then counted after 15 days of incubation with IL-1 by use of propidium iodide and Hoechst 33342 nuclear staining. […] A minimum of 1.000 cells were counted for each experiment.

Series [12] has as its system Primary cultured macrophages. The series can be described thus: Incorporation of XG-102 into primary cultured macrophages, detected with a specific antibody. The series is classed as cell-based. The conditions noted are these: incubated with peptide and extensively washed. On the procedure:
FIG. 8 Primary cultured macrophages were incubated with XG-102 (SEQ ID NO: 11) and extensively washed.

For series [13], the system named is primary lymphoid and myeloid cells. The series can be described thus: Cytotoxicity in primary cells (FIG. 12 Panel F). It counts as cell-based, murine.
In series [14] the test system is recombinant JNK1, JNK2 and JNK3. The series can be described thus: Solid phase kinase assay, phosphorylation of c-Jun, ATF2 and Elk1 by recombinant JNKs. It counts as biochemical. The note with it: GST-Jun (aa 1-73), 0-250 μM dosage study. On the procedure:
The effects of the peptides on JNKs-mediated phosphorylation of their target transcription factors were investigated in vitro. Recombinant and non activated JNK1, JNK2 and JNK3 were produced using a TRANSCRIPTION AND TRANSLATION rabbit reticulocyte lysate kit (Promega) and used in solid phase kinase assays with c-Jun, ATF2 and Elk1, either alone or fused to glutathione-S-transferase (GST), as substrates. Dose response studies were performed wherein L-TAT or L-TAT-IB1(s) peptides (0-25 μM) were mixed with the recombinant JNK1, JNK2, or JNK3 kinases in reaction buffer (20 mM Tris-acetate, 1 mM EGTA, 10 mM p-nitrophenyl-phosphate (pNPP), 5 mM sodium pyrophosphate, 10 mM p-glycerophosphate, 1 mM dithiothreitol) for 20 minutes. The kinase reactions were then initiated by the addition of 10 mM MgCl2 and 5 pCi ^33P-dATP and 1 μg of either GST-Jun (aa 1-89), GST-AFT2 (aa 1-96) or GST-ELK1 (aa 307-428). GST-fusion proteins were purchased from Stratagene (La Jolla, Calif.).
Ten μL of glutathione-agarose beads were also added to the mixture. Reaction products were then separated by SDS-PAGE on a denaturing 10% polyacrylamide gel. Gels were dried and subsequently exposed to X-ray films (Kodak). […] The ability of D-TAT, D-TAT-IB1(s) and L-TAT-IB1(s) peptides (0-250 μM dosage study) to inhibit GST-Jun (aa 1-73) phosphorylation by recombinant JNK1, JNK2, and JNK3 by were analyzed as described above. Overall, D-TAT-IB1(s) peptide decreased JNK-mediated phosphorylation of c-Jun, but at levels approximately 10-20 fold less efficiently than L-TAT-IB1(s).

For series [15], the system named is TNBS-induced colitis. The series can be described thus: TNBS-induced colitis in mice (FIG. 13). It counts as in vivo. The note with it: subcutaneous, 50 and 100 mg/kg. The text has this: JNK is activated in macrophages and lymphocytes of patients with inflammatory bowel disease, a response correlated with increased TNFa, IL-6 and IFNg production in lesions.

Series [16] deals with JNK. The note with it: JBDs; Dickens et al. Science 277: 693 (1997); cited from earlier work.

In the case of `N#CC(c1ccnc(NCCc2cccnc2)n1)c1nc2ccccc2s1` (stereo not shown) [AS601245], the “delayed loss of hippocampal CA1 neurons” value in series [1] is on record as “significant protection”.

Consider `CCSCc1ccc2c(c1)c1c3c(c4c5cc(CSCC)ccc5n5c4c1n2[C@H]1C[C@](O)(C(=O)OC)[C@]5(C)O1)CNC3=O` [CEP-1347], for which the neuronal survival entry in [2] and in [4] was “promotes neuronal survival” in each case. Besides, the “long term-survival of neurons” value in [3] is on record as “promote long term-survival”.

`O=C(O)c1cc(/N=N/c2ccc(S(=O)(=O)Nc3ccccn3)cc2)ccc1O` [Sulfasalazine, reference compound]: in [5], the clinical score entry was “reduction in the clinical score”. For the same compound, the “gross pathology score of the colon” value in series [5] (end of study, 10 mg/kg PO daily) is recorded as “effective in reducing the gross pathology completely”.

As to “Fluorescein-labeled BSA: Fluorescein-labeled BSA (1 μM, 12 moles/mole BSA) used as a control [reference compound]”, the entry into cells entry in [6] was “did not enter the cells”.

As for “NH2-DQSRPVQPFLNLTTPRKPRPPRRRQRRKKRG-COOH (H-[dD][dQ][dS][dR][dP][dV][dQ][dP][dF][dL][dN][dL][dT][dT][dP][dR][dK][dP][dR][dP][dP][dR][dR][dR][dQ][dR][dR][dK][dK][dR]G-OH) [XG-102]”, in [7], the “PMA & ionomycin-induced IFNg production” value is listed as “reducing”, the “PMA & ionomycin-induced IL-2 production” value was “reducing” and the “PMA & ionomycin-induced IL-6 production” value is on record as “reducing”. In [8], the “LPS-induced IL-6 release” value is “reducing”, the “LPS-induced MCP-1 release” value is listed as “reducing” and the “LPS-induced TNFa release” value is recorded as “reducing”. Moreover, in [9], the “LPS-induced IL-6 release” value was “reducing”, the “LPS-induced Rantes release” value is given as “reducing” and the “LPS-induced TNFa release” value is on record as “reducing”. In [10], the “PMA & ionomycin-induced IFNg production” value was “reducing” and the “PMA & ionomycin-induced TNFa production” value is recorded as “reducing”. Further, the “long term protection from IL-1 induced cell-death, 15 days” value in series [11] (IL-1 10 ng/ml every two days) is reported as “able to confer long term (15 day) protection”. Moreover, the “incorporation into primary macrophages” value in [12] is given as “strongly incorporated”. Moreover, the clinical signs result in series [5] (0.01-1000 μg/kg SC or PO, single or daily for 7 days) was “No abnormalities were observed”. In addition, in [5] (SC or PO), the “disease recovery (conclusion)” value is given as “active in enhancing diseases recovery”. Further, in series [5], the clinical score entry is reported as “an effect equivalent to or better than the one observed with the commonly used reference drug sulfasalazine”. For the same compound, in series [5] (mouse, in vivo), the “body weights (TNBS induced weight loss)” value is “either prevented the weight loss or ameliorated the symptoms and supported recovery”. Further, in [5] (whole study), the mortality rate entry is on record as “No mortality was recorded”. For the same compound, in [13], the “cytotoxicity at concentrations inhibiting cytokine release” value is “non-cytotoxic concentrations”. Also, the “decrease of JNK-mediated phosphorylation of c-Jun, fold less efficient than L-TAT-IB1(s)” value in [14] was 10-20 fold. The entry into cells entry in [6] is “efficiently and rapidly (less than five minutes) entered cells”. Moreover, in [15], the DAI result is reported as “diminishing”, the “protection from TNBS-induced colitis” value was “protects mice from TNBS-induced colitis”, the rectal bleeding entry is given as “diminishing” and the weight loss entry was “diminishing”.

Take “NH2-GRKKRRQRRR-COOH (H-GRKKRRQRRR-OH) [L-TAT]”: in series [6], the entry into cells entry was “efficiently and rapidly (less than five minutes) entered cells”.

Regarding “NH2-IPSPSVEEPHKHRPTTLRLTTLGAQDS-COOH (H-IPSPSVEEPHKHRPTTLRLTTLGAQDS-OH) [IB2-long]”, the “efficiency in binding JNK relative to c-Jun or ATF2” value in series [16] is “approximately 100 fold”.

Consider “NH2-PGTGCGDTYRPKRPTTLNLFPQVPRSQDT-COOH (H-PGTGCGDTYRPKRPTTLNLFPQVPRSQDT-OH) [IB1-long]”, for which, in [16], the “efficiency in binding JNK relative to c-Jun or ATF2” value is listed as “approximately 100 fold”.

Regarding “NH2-RRRQRRKKRG-COOH (D-amino acids; Description of sequence Peptide D-TAT (see Table 1))”, in series [6], the entry into cells result was “efficiently and rapidly (less than five minutes) entered cells”.

As for “NH2-TDQSRPVQPFLNLTTPRKPRYTDPPRRRQRRKKRG-COOH (HELM PEPTIDE1{[dT].[dD].[dQ].[dS].[dR].[dP].[dV].[dQ].[dP].[dF].[dL].[dN].[dL].[dT].[dT].[dP].[dR].[dK].[dP].[dR].[dY].[dT].[dD].[dP].[dP].[dR].[dR].[dR].[dQ].[dR].[dR].[dK].[dK].[dR].G}$$$$V2.0; SMILES CC(C)C[C@@H](NC(=O)[C@@H](Cc1ccccc1)NC(=O)[C@H]1CCCN1C(=O)[C@@H](CCC(N)=O)NC(=O)[C@H](NC(=O)[C@H]1CCCN1C(=O)[C@@H](CCCNC(=N)N)NC(=O)[C@@H](CO)NC(=O)[C@@H](CCC(N)=O)NC(=O)[C@@H](CC(=O)O)NC(=O)[C@H](N)[C@H](C)O)C(C)C)C(=O)N[C@H](CC(N)=O)C(=O)N[C@H](CC(C)C)C(=O)N[C@@H](C(=O)N[C@@H](C(=O)N1CCC[C@@H]1C(=O)N[C@H](CCCNC(=N)N)C(=O)N[C@H](CCCCN)C(=O)N1CCC[C@@H]1C(=O)N[C@H](CCCNC(=N)N)C(=O)N[C@H](Cc1ccc(O)cc1)C(=O)N[C@@H](C(=O)N[C@H](CC(=O)O)C(=O)N1CCC[C@@H]1C(=O)N1CCC[C@@H]1C(=O)N[C@H](CCCNC(=N)N)C(=O)N[C@H](CCCNC(=N)N)C(=O)N[C@H](CCCNC(=N)N)C(=O)N[C@H](CCC(N)=O)C(=O)N[C@H](CCCNC(=N)N)C(=O)N[C@H](CCCNC(=N)N)C(=O)N[C@H](CCCCN)C(=O)N[C@H](CCCCN)C(=O)N[C@H](CCCNC(=N)N)C(=O)NCC(=O)O)[C@H](C)O)[C@H](C)O)[C@H](C)O) [D-TAT-IB1]”, the “IL-1 induced apoptosis after two days” value in series [11] (IL-1 10 ng/ml) was “decreased IL-1 induced apoptosis to a similar extent as L-TAT-IB peptides”.
